Source: patent US4550186A, “Binuclear copper (II) carboxylates formed from amine-carboxyboranes” (Duke University, priority 1983, dated 1985)

What was measured:
ribonucleotide reductase = molecular target: T1, ribonucleotide reductase (Mus musculus, UniProt P07742+P11157); test: In vitro ribonucleotide reductase activity; format: biochemical; conditions: 0.25 to 1.0 mM
T1 construct: endogenous in cells; host or cells: Ehrlich ascites tumor cells
T1 sequence (P07742 1-792): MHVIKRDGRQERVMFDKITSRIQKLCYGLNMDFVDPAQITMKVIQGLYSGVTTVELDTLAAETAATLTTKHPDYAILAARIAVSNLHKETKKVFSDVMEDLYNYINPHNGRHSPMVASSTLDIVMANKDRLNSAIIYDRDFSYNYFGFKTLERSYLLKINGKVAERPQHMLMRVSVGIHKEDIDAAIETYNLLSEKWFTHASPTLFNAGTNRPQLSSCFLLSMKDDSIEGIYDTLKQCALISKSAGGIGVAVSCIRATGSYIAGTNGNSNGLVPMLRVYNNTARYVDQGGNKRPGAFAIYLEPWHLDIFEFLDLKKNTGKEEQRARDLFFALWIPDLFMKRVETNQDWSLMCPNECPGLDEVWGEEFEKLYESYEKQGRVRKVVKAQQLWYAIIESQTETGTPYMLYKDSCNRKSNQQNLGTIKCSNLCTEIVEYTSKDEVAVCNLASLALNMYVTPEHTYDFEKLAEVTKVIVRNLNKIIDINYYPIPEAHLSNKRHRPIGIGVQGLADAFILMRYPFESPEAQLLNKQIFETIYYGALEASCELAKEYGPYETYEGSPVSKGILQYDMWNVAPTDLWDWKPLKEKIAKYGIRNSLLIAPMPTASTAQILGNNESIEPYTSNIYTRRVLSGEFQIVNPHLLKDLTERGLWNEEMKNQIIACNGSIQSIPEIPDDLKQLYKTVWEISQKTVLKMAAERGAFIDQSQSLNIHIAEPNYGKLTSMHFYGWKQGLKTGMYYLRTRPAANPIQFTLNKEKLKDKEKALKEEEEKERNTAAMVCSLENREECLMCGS
T1 sequence (P11157 1-390): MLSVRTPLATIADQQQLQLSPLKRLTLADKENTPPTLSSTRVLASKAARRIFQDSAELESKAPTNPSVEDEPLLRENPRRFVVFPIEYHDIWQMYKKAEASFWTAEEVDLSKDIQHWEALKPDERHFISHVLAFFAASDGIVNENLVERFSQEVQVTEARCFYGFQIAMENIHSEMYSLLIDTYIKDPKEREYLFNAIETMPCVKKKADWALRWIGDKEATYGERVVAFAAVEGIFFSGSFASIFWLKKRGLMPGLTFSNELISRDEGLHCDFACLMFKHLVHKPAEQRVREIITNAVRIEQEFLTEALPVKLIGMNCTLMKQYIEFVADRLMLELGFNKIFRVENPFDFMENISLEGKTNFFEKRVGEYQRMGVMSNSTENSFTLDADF
Experimental: (§1) CF1 male mice (~30 g) were implanted with 2×10^6 Ehrlich ascites tumor cells, intraperitoneally on Day 0. Compound I was suspended by homogenation in 0.05% polysorbate.80-water and administered intraperitoneally at 10 and 20 mg/kg for 9 days to determine its effectiveness for inhibition of tumor growth. Mice were sacrificed on Day 10, and the ascites fluid was collected from the peritoneal cavity. The volume and ascrit (packed cell volume) were determined for each animal and the percent inhibition of tumor growth was calculated. For the metabolic studies, mice were treated on Days 8 and 9 with 10 mg/kg of Compound I, intraperitoneally. […]
Carbamyl phosphate synthetase activity was determined using the reaction medium of Kalman et al [Am. […] Citrulline formed from ornithine was measured at 490 nm by the method of Archibald [J. Biol. Chem., 156, 121 (1944)]. […] The ^14 CO2 generated in 15 min was trapped in 1M KOH and counted. Thymidylate synthetase activity was determined using a post-mitochondrial supernatant (9000 g×10 min) and 5 μCi of 5-^3 H-deoxyuridine monophosphate (14 Ci/mmol) according to the method of Kampf et al [ J. Med. Chem., 19, 903 (1976)]. ^14 C-Formate incorporation into purines was determined by the method of Spassova et al [Biochem. Pharmacol., 25, 923 (1976)] using 0.5 μCi of ^14 C-formic acid (52.0 mCi/mmol). […] The Rf value for xanthine monophosphate was scraped and counted. […]

[1] = system: deoxyribonucleic acid synthesis of Ehrlich ascites cells; test: In vivo thymidine incorporation into deoxyribonucleic acid; design: species or system mouse
Experimental: as §1, with “intraperitoneally. The animal was sacrificed on Day 10 and the ascites fluid harvested.” for “intraperitoneally.”
For in vivo studies, incorporation of thymidine into deoxyribonucleic acid was determined by the method of Chae et al [Proc. Am. […] The deoxyribonucleic acid was isolated and the tritium content was determined in a toluene based scintillation fluid. The deoxyribonucleic acid concentration was determined by the diphenylamine reaction using calf thymus deoxyribonucleic acid as a standard. Uridine incorporation into ribonucleic acid was determined using 10 μCi of 5,6-^3 H-uridine (22.4 Ci/mmol). […] Leucine incorporation into protein was determined by the method of Sartorelli [Biochem. Biophys. […] Protein content was determined by the Lowry procedure using bovine serum albumin as a standard.

Substance: {Cu[(CH3)3 N.BH2 CO2 ]2.(CH3)3 N.BH2 COOH} [Compound I]
- ribonucleotide reductase inhibition (ribonucleotide reductase): not inhibited
- 3H-Thymidine incorporation into deoxyribonucleic acid ([1]; 10 mg/kg/day I.P. on Days 8 and 9): 43 ± 5 % Control
- thymidine incorporation into deoxyribonucleic acid inhibited ([1]; 10 day Ehrlich ascites cells): 57%
